In the oligonucleotide strings, read from the 5' end, every base follows the letter of its sugar. An asterisk marks phosphorothioate; unmarked linkages are phosphodiester. Other units and linkages are bracketed, terminal groups are in braces. A string of capitals states the bases alone. m = 2'-O-methyl
Biological target: T1, TLR8 (Homo sapiens, UniProt Q9NR97)
T1 sequence (Q9NR97 27-1041): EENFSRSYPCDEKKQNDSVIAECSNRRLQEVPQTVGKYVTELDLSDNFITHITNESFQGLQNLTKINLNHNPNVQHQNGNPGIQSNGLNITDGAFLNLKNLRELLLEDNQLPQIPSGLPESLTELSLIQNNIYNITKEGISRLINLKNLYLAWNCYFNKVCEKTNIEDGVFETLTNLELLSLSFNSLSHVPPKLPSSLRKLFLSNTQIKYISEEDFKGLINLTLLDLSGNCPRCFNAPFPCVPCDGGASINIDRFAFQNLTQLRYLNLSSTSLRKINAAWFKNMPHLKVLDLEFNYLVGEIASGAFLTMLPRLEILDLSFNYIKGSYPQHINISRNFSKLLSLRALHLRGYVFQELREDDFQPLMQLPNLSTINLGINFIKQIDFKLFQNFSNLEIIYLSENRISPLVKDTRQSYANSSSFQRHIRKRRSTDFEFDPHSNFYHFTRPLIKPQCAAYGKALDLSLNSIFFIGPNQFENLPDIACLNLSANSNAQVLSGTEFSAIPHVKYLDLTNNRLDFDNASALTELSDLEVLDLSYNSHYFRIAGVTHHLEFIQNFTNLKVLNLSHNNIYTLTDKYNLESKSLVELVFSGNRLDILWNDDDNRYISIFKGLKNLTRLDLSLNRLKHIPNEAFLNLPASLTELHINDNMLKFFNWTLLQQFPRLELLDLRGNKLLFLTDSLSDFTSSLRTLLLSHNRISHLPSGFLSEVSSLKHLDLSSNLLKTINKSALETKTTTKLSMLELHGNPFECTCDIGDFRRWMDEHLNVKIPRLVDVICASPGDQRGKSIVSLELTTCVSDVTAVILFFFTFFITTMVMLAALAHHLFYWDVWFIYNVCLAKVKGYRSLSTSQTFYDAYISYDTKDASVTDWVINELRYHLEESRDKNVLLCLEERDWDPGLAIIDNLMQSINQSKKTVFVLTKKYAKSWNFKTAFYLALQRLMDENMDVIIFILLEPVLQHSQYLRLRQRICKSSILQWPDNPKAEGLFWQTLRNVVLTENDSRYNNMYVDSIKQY
Experiment: HEK-TLR8 NF-κB-luciferase reporter, R848 or Motolimod stimulation (potentiation or inhibition)
Assay type: cell-based
Parameters: expressed in transfected cells; host or cells: 293XLhTLR8 (HEK293)
Conditions: for TLR8 HEK 5 uM: 3mer 2'OMe ASO at 5 uM, value relative to Ligand only = 1.000, NT = 0.000; for TLR8 100 nM (averaged NF-κB-Luciferase level relative to R848 condition, fold increase): ASO 100 nM; for TLR8 100 nM (averaged NF-κB-Luciferase level relative to R848 condition, fold increase) / TLR8 500 nM (averaged NF-κB-Luciferase level relative to R848 condition, fold increase): relative to R848 only; for TLR8 500 nM (averaged NF-κB-Luciferase level relative to R848 condition, fold increase): ASO 500 nM

Substance	TLR8 HEK 5 uM	TLR8 100 nM (averaged NF-κB-Luciferase level relative to R848 condition, fold increase)	TLR8 500 nM (averaged NF-κB-Luciferase level relative to R848 condition, fold increase)
dA*dG*dA (DNA AGA; listed as DNA, chemistry not fully specified)	1.520	–	–
AAU (antisense mA*mA*mU)	0.807	–	–
AUU (mA*mU*mU)	0.762	–	–
dC*dA*dA (CAA; listed as DNA, chemistry not fully specified)	0.811	–	–
dC*dC*dC (CCC; listed as DNA, chemistry not fully specified)	0.756	–	–
UCU (mU*mC*mU)	1.414	–	–
CAU (mC*mA*mU)	0.752	–	–
GTCTTGGCTTCGTGGA (antisense; LNA-modified, pattern not given here) [MB21D1-522 LNA V1]	–	0.678	2.137
UGU (mU*mG*mU)	1.120	–	–
GCCATCCACTTGATAG (antisense; LNA-modified, pattern not given here) [EGFR-2874 LNA V1]	–	0.440	0.681
UAA (mU*mA*mA)	0.907	–	–
dC*dG*dA (CGA; listed as DNA, chemistry not fully specified)	1.512	–	–

Reference: patent publication US20240384268A1, “Oligonucleotides” (Hudson Institute of Medical Research, priority 2021, published 2024)
